According to patent publication US20180104174A1, “Cosmetic Use of a Diospyros Mespiliformis Extract Alone or in Combination with Other Active Agents Such as an Anti-Pollutant” (Laboratoires Clarins, priority 2015, published 2018):

Tests used:
Assay type in all cases: cell-based
[1] = test system: cell superoxide dismutase (SOD) in normal human keratinocytes; test: Mitoread RedOx c/mtSOD: cell SOD activity after H2O2 stress
Excerpt: (§1) The objective of this study is the characterization of the antioxidant property of a Sanicula europea extract by evaluating the parameters of the redox state after induction of an oxidative stress by hydrogen peroxide (H2O2) in primary cultures of normal human keratinocytes. The Mitosafe® technology makes it possible to explore the antioxidant effects of active agents at the mitochondrial level. This technology consists of the integrated study of mitochondrial functions in living cells by multiplexed measurement of parameters such as cell viability, production of cell and mitochondrial oxygen free radicals, evaluation of antioxidant defenses. These tests in 96-well plates are carried out on primary cultures of human epidermal cells. The Mitoread RedOx c/mtSOD methodology consists of the quantification of the cell and mitochondrial SOD activities. The cells were pre-incubated at 37° C. for 60 minutes with the reference antioxidant, resveratrol at 1 μM, or the active ingredients at the predetermined concentrations. The cells were treated with the reference pro-oxidizing compound, hydrogen peroxide H2O2 at 100 μM for 60 minutes. Immediately after, the cell extracts were prepared and stored at −80° C. The enzymatic activities were measured by means of a fluorometric and enzymatic method using a microplate reader (Varioskan-Thermo). All the extracts were tested in triplicate.

[2] = test system: mitochondrial superoxide dismutase (SOD) in normal human keratinocytes; test: Mitoread RedOx c/mtSOD: mitochondrial SOD activity after H2O2 stress
Excerpt: as §1

[3] = test system: total glutathione (GSH+GSSG) in normal human keratinocytes; test: Mitoread RedOx GSHtot: total glutathione level after H2O2 stress
Excerpt: as §1, with “RedOx GSHtot” for “RedOx c/mtSOD”, “the total glutathione level (GSH+GSSG).” for “the cell and mitochondrial SOD activities.”, “resveratrol” for “resveratrol at”, “the extract” for “the active ingredients”, “100 μM,” for “100 μM”, “The total glutathione level was” for “The enzymatic activities were”

[4] = test system: cell reactive oxygen species (ROSs) in normal human keratinocytes; test: Mitoread AntiOx cROS: cell ROS production after H2O2 stress
Excerpt: The objective of this study is the characterization of the antioxidant property of a Sanicula europea extract by evaluating the parameters of the redox state after induction of an oxidative stress by hydrogen peroxide (H2O2) in primary cultures of normal human keratinocytes. The Mitosafe® technology makes it possible to explore the antioxidant effects of active agents at the mitochondrial level. This technology consists of the integrated study of mitochondrial functions in living cells by multiplexed measurement of parameters such as cell viability, production of cell and mitochondrial oxygen free radicals, evaluation of antioxidant defenses. These tests in 96-well plates are carried out on primary cultures of human epidermal cells. The Mitoread AntiOx cROS methodology consists of the quantification of the antioxidant activity of the ingredients toward cell reactive oxygen species (ROSs) using a fluorescent label. […] After washing, the cells were co-incubated with the antioxidant reference compound, […] Trolox, or the extracts, at concentrations determined to be non-cytotoxic, in the presence of the pro-oxidizing reference compound, 100 μM H2O2. The cell ROS production was immediately recorded for 60 minutes. The fluorescence is recorded every five minutes using a microplate reader (Varioskan-Thermo). […]

[5] = test system: mitochondrial reactive oxygen species (ROSs) in normal human keratinocytes; test: Mitoread AntiOx mtROS: mitochondrial ROS production after H2O2 stress
Excerpt: The objective of this study is the characterization of the antioxidant property of a Sanicula europea extract by evaluating the parameters of the redox state after induction of an oxidative stress by hydrogen peroxide (H2O2) in primary cultures of normal human keratinocytes. The Mitosafe® technology makes it possible to explore the antioxidant effects of active agents at the mitochondrial level. This technology consists of the integrated study of mitochondrial functions in living cells by multiplexed measurement of parameters such as cell viability, production of cell and mitochondrial oxygen free radicals, evaluation of antioxidant defenses. These tests in 96-well plates are carried out on primary cultures of human epidermal cells. The Mitoread AntiOx mtROS methodology consists of the quantification of the antioxidant activity of the ingredients toward mitochondrial reactive oxygen species (ROSs) using a fluorescent label. The cells were pre-incubated at 37° C. for 60 minutes with the reference antioxidant, resveratrol 1 μM, or the active ingredients at the predetermined concentrations. Next, they were incubated with the fluorescent probe at 37° C. for 30 minutes, as a replacement for the antioxidant compounds. […] The mitochrondrial ROS production was immediately recorded for 60 minutes. The fluorescence is recorded every five minutes using a microplate reader (Varioskan-Thermo). […]

OO [H2O2, hydrogen peroxide]
decrease in the cell SOD activity compared with the nontreated cells ([1]; H2O2 100 μM, non-significant trend, p=0.075): ~30%
increase in the mitochondrial SOD activity compared with the nontreated cells ([2]; H2O2 100 μM, p=0.006): ~211%
increase in the total glutathione level compared with the nontreated cells ([3]; H2O2 at 100 μM, p=0.044): ~2.9 times
increase of the cell ROS production level compared with the nontreated cells ([4]; 100 μM H2O2): 7.4 times
increase in mitochondrial production of ROSs relative to the nontreated cells (factor) ([5]; 100 μM H2O2): 9.4

Cc1c(C)c2c(c(C)c1O)CCC(C)(C(=O)O)O2 (stereo not shown) [Trolox]
reduction of the overproduction of cell ROSs induced by H2O2 ([4]; Trolox at 10 μm, p<0.001): 1.7 times

Oc1ccc(C=Cc2cc(O)cc(O)c2)cc1 [resveratrol]
increase in the cell SOD activity in response to H2O2 exposure ([1]; 1 μM, p=0.036): ~40%
reduction of the activity of the mitochondrial SOD induced by H2O2 ([2]; 1 μM, p=0.021): ~66%
reduction of the total glutathione level after treatment with H2O2 ([3]; pre-incubation at 1 μM, p=0.006): 94%
reduction of the overproduction of mitochondrial ROSs induced by H2O2 ([5]; 1 μM, p=0.013): ~1.3 times
